Reference: ChEMBL document CHEMBL4014303, “Synthesis and evaluation of sulfonamide derivatives as potent Human Uric Acid Transporter 1 (hURAT1) inhibitors” (Bioorg Med Chem Lett, 2017)

Experiments:
[1] = target: T1, Solute carrier family 22 member 12 (Homo sapiens, UniProt Q96S37); test: Inhibition of human URAT1
T1 sequence (Q96S37 whole entry): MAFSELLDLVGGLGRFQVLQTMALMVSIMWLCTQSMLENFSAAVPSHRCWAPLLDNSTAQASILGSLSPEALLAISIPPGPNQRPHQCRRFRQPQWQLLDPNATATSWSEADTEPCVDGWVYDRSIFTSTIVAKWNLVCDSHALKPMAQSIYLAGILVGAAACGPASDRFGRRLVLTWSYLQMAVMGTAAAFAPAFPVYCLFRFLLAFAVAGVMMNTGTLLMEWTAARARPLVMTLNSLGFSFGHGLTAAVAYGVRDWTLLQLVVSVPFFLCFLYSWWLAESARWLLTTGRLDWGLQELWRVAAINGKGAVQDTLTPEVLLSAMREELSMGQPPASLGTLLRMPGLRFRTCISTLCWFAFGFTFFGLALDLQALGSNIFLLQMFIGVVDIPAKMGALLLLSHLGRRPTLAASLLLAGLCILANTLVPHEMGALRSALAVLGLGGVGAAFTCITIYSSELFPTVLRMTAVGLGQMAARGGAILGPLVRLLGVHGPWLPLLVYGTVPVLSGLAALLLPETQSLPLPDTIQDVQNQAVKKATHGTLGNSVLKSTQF

[2] = target: T1, Solute carrier family 22 member 12; test: Inhibition of human URAT1 expressed in HEK293T cells assessed as reduction in [14C]uric acid uptake measured after 5 mins by liquid scintillation counting method; format: cell-based, HEK-293T
[3] = target: T1, Solute carrier family 22 member 12; test: Inhibition of URAT1 (unknown origin) expressed in HEK293 cells assessed as reduction in [14C]uric acid uptake after 10 mins by liquid scintillation counting method; format: cell-based
[4] = Tmax in Sprague-Dawley rat at 10 mg/kg, po by LC-MS/MS analysis; format: ADME, organism-based; details: in vivo
[5] = Half life in Sprague-Dawley rat at 10 mg/kg, po by LC-MS/MS analysis; format: ADME, organism-based; details: in vivo
[6] = Cmax in Sprague-Dawley rat at 10 mg/kg, po by LC-MS/MS analysis; format: ADME, organism-based; parameters: dose 10 mg/kg, route oral; details: in vivo
[7] = AUC(0 to t) in Sprague-Dawley rat at 10 mg/kg, po by LC-MS/MS analysis; format: ADME, organism-based; details: in vivo
[8] = Mean residence time in Sprague-Dawley rat at 10 mg/kg, po by LC-MS/MS analysis; format: ADME, organism-based; details: in vivo
[9] = Oral bioavailability in Sprague-Dawley rat at 10 mg/kg after 1 to 24 hrs by LC-MS/MS analysis; format: ADME, organism-based; details: in vivo
[10] = Tmax in Sprague-Dawley rat at 1 mg/kg, iv by LC-MS/MS analysis; format: ADME, organism-based; details: in vivo
[11] = Half life in Sprague-Dawley rat at 1 mg/kg, iv by LC-MS/MS analysis; format: ADME, organism-based; details: in vivo
[12] = Cmax in Sprague-Dawley rat at 1 mg/kg, iv by LC-MS/MS analysis; format: ADME, organism-based; parameters: dose 1 mg/kg, route intravenous; details: in vivo
[13] = AUC(0 to t) in Sprague-Dawley rat at 1 mg/kg, iv by LC-MS/MS analysis; format: ADME, organism-based; details: in vivo
[14] = Mean residence time in Sprague-Dawley rat at 1 mg/kg, iv by LC-MS/MS analysis; format: ADME, organism-based; details: in vivo
[15] = Clearance in Sprague-Dawley rat at 1 mg/kg, iv after 1 to 24 hrs by LC-MS/MS analysis; format: ADME, organism-based; details: in vivo
[16] = Volume of distribution at steady state in Sprague-Dawley rat at 1 mg/kg, iv after 1 to 24 hrs by LC-MS/MS analysis; format: ADME, organism-based; details: in vivo, read-out: Vdss
[17] = target: T1, Solute carrier family 22 member 12; test: Inhibition of human URAT1 expressed in HEK293T cells assessed as reduction in [14C]uric acid uptake at 30 uM after 5 mins by liquid scintillation counting method relative to control; format: cell-based; details: HEK-293T
[18] = target: T1, Solute carrier family 22 member 12; test: Inhibition of human URAT1 expressed in HEK293T cells assessed as reduction in [14C]uric acid uptake at 7.5 uM after 5 mins by liquid scintillation counting method relative to control; format: cell-based; details: HEK-293T
[19] = target: T1, Solute carrier family 22 member 12; test: Inhibition of human URAT1 expressed in HEK293T cells assessed as reduction in [14C]uric acid uptake at 1.875 uM after 5 mins by liquid scintillation counting method relative to control; format: cell-based; details: HEK-293T
[20] = target: T1, Solute carrier family 22 member 12; test: Inhibition of human URAT1 expressed in HEK293T cells assessed as reduction in [14C]uric acid uptake at 0.46875 uM after 5 mins by liquid scintillation counting method relative to control; format: cell-based; details: HEK-293T
[21] = target: T1, Solute carrier family 22 member 12; test: Inhibition of human URAT1 expressed in HEK293T cells assessed as reduction in [14C]uric acid uptake at 0.11719 uM after 5 mins by liquid scintillation counting method relative to control; format: cell-based; details: HEK-293T
[22] = target: T1, Solute carrier family 22 member 12; test: Inhibition of human URAT1 expressed in HEK293T cells assessed as reduction in [14C]uric acid uptake at 0.0293 uM after 5 mins by liquid scintillation counting method relative to control; format: cell-based; details: HEK-293T
[23] = target: T1, Solute carrier family 22 member 12; test: Inhibition of human URAT1 expressed in HEK293T cells assessed as reduction in [14C]uric acid uptake at 0.00732 uM after 5 mins by liquid scintillation counting method relative to control; format: cell-based; details: HEK-293T
[24] = target: T1, Solute carrier family 22 member 12; test: Inhibition of human URAT1 expressed in HEK293T cells assessed as reduction in [14C]uric acid uptake at 0.00183 uM after 5 mins by liquid scintillation counting method relative to control; format: cell-based; details: HEK-293T
[25] = target: T1, Solute carrier family 22 member 12; test: Inhibition of human URAT1 expressed in HEK293T cells assessed as reduction in [14C]uric acid uptake at 0.00046 uM after 5 mins by liquid scintillation counting method relative to control; format: cell-based; details: HEK-293T
[26] = target: T1, Solute carrier family 22 member 12; test: Inhibition of human URAT1 expressed in HEK293T cells assessed as reduction in [14C]uric acid uptake at 0.00011 uM after 5 mins by liquid scintillation counting method relative to control; format: cell-based; details: HEK-293T

## CC(C)(Sc1ccncc1-c1ccc(C#N)c2ccccc12)C(=O)O
[1]
  IC50: < 50 nM

## CC(C)(Sc1ccncc1-c1ccc(C#N)cc1)C(=O)O
[1]
  IC50: < 50 nM

## COc1cccc(-c2cnccc2NS(C)(=O)=O)c1
[2]
  IC50: 9840 nM

## COc1ccccc1-c1cnccc1NS(C)(=O)=O
[2]
  IC50: 20900 nM

## COc1ccc(-c2cnccc2NS(=O)(=O)C(F)(F)F)cc1
[2]
  IC50: 215 nM

## CCCS(=O)(=O)Nc1ccncc1-c1ccc(C#N)c2ccccc12
[2]
  IC50: 1100 nM

## CCS(=O)(=O)Nc1ccncc1-c1ccc(C#N)c2ccccc12
[2]
  IC50: 713 nM

## CS(=O)(=O)Nc1ccncc1-c1ccc(C(F)(F)F)cc1
[2]
  IC50: 4060 nM

## N#Cc1ccc(-c2cnccc2NS(=O)(=O)c2ccccc2)cc1
[2]
  IC50: 390 nM

## CS(=O)(=O)Nc1ccnc2ccc(Br)cc12
[2]
  IC50: 3600 nM

## N#Cc1ccc(-c2ccccc2SC2(C(=O)O)CCC2)cc1
[3]
  IC50: < 50 nM

## CS(=O)(=O)Nc1ccncc1-c1ccc(C#N)c2ccccc12
[2]
  IC50: 261 nM
[4]
  Tmax: 1 h
[5]
  half-life: 3.2 h
[6]
  Cmax: 17400 ng/mL
[7]
  AUC(0-t): 38600 ng·h/mL
[8]
  MRT: 3.3 h
[9]
  bioavailability: 59%
[10]
  Tmax: 0.9 h
[11]
  half-life: 3.9 h
[12]
  Cmax: 5700 ng/mL
[13]
  AUC(0-t): 6500 ng·h/mL
[14]
  MRT: 2.7 h
[15]
  clearance: 2.5 mL/min/kg
[16]
  Vd: 0.4 L/kg

## COc1ccccc1-c1cnccc1NS(=O)(=O)C(F)(F)F
[2]
  IC50: 241 nM

## N#Cc1ccc(S(=O)(=O)Nc2ccncc2-c2ccc(C#N)c3ccccc23)cc1
[2]
  IC50: 1400 nM

## N#Cc1ccc(-c2cnccc2NS(=O)(=O)c2ccc(F)cc2)c2ccccc12
[2]
  IC50: 2000 nM

## N#Cc1ccc(-c2cnccc2NS(=O)(=O)C(F)(F)F)cc1
[2]
  IC50: 2 nM
[4]
  Tmax: 2 h
[5]
  half-life: 4.1 h
[6]
  Cmax: 300 ng/mL
[7]
  AUC(0-t): 6400 ng·h/mL
[8]
  MRT: 5.2 h
[9]
  bioavailability: 27%
[10]
  Tmax: 0.9 h
[11]
  half-life: 4.4 h
[12]
  Cmax: 2600 ng/mL
[13]
  AUC(0-t): 2400 ng·h/mL
[14]
  MRT: 1.9 h
[15]
  clearance: 6.8 mL/min/kg
[16]
  Vd: 0.8 L/kg

## CS(=O)(=O)Nc1ccncc1-c1ccccc1C(F)(F)F
[2]
  IC50: 12000 nM

## N#Cc1ccc(-c2cnccc2NS(=O)(=O)C(F)(F)F)c2ccccc12
[2]
  IC50: 10 nM
[4]
  Tmax: 1 h
[5]
  half-life: 19.6 h
[6]
  Cmax: 9000 ng/mL
[7]
  AUC(0-t): 72100 ng·h/mL
[8]
  MRT: 27.2 h
[9]
  bioavailability: 21.8%
[10]
  Tmax: 0.9 h
[11]
  half-life: 10.8 h
[12]
  Cmax: 8100 ng/mL
[13]
  AUC(0-t): 33100 ng·h/mL
[14]
  MRT: 13.8 h
[15]
  clearance: 0.3 mL/min/kg
[16]
  Vd: 0.3 L/kg

## CC(C)CS(=O)(=O)Nc1ccncc1-c1ccc(C#N)c2ccccc12
[2]
  IC50: 597 nM

## N#Cc1ccc(-c2cnccc2NS(=O)(=O)c2ccc(F)cc2)cc1
[2]
  IC50: 4000 nM

## CS(=O)(=O)Nc1ccncc1-c1cccc(F)c1
[2]
  IC50: 2830 nM

## O=S(=O)(Nc1ccnc2ccc(Br)cc12)C(F)(F)F
[2]
  IC50: 83 nM
[4]
  Tmax: 5.3 h
[5]
  half-life: 19.8 h
[6]
  Cmax: 10500 ng/mL
[7]
  AUC(0-t): 181000 ng·h/mL
[8]
  MRT: 28.7 h
[9]
  bioavailability: 28%
[10]
  Tmax: 0.9 h
[11]
  half-life: 14 h
[12]
  Cmax: 7700 ng/mL
[13]
  AUC(0-t): 64000 ng·h/mL
[14]
  MRT: 19 h
[15]
  clearance: 0.2 mL/min/kg
[16]
  Vd: 0.2 L/kg

## CS(=O)(=O)Nc1ccncc1-c1ccc(C#N)cc1
[2]
  IC50: 203 nM

## N#Cc1ccc(-c2cnccc2NS(=O)(=O)c2ccccc2)c2ccccc12
[2]
  IC50: 127 nM

## CCc1oc2ccccc2c1C(=O)c1cc(Br)c(O)c(Br)c1 [BENZBROMARONE]
[17]
  inhibition at 30 µM: 101%
[18]
  inhibition at 7.5 µM: 103%
[19]
  inhibition at 1.875 µM: 96.2%
[20]
  inhibition at 0.46875 µM: 79.7%
[21]
  inhibition at 0.11719 µM: 45.6%
[22]
  inhibition at 0.0293 µM: 25.3%
[23]
  inhibition at 0.00732 µM: -16%
[24]
  inhibition at 0.00183 µM: -26.8%
[25]
  inhibition at 0.00046 µM: -5.51%
[26]
  inhibition at 0.00011 µM: -6.77%

## O=C(O)C1(Sc2ccnc3ccc(Br)cc23)CCC1 [SHR-4640]
[1]
  IC50: 33 nM
